In the experiment the target is T1, human β3 adrenergic receptor (Homo sapiens, UniProt P13945).
T1 construct: expressed in transfected cells; host or cells: Chinese hamster ovary (CHO) cells, stably transfected
The experiment in a line: Beta-3 agonist in vitro functional assay: cAMP production (LANCE TR-FRET) in CHO cells stably transfected with the cloned β3 receptor. Type of experiment: cell-based. The method, boiled down:
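CHO cells stably expressing the cloned receptor, in HEPES-buffered HBSS with BSA and 0.6 mM IBMX, 6,000 cells/well, exposed to compound for 30 min at RT. cAMP read by LANCE TR-FRET against a cAMP standard curve. Isoproterenol defines maximal stimulation.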
On the technique in general: Cyclic AMP is a second messenger, typically raised through Gs and lowered through Gi signalling.

Where [1] appears, read: Table 9, Beta-3 agonist in vitro functional assay, read-out: Human β3 agonist functional activity.
Where [2] appears, read: Table 10, Beta-3 agonist in vitro functional assay, read-out: Human β3 agonist functional activity.
[3] abbreviates: Table 12, human β3 functional activity given as ranges, read-out: Human β3 agonist functional activity.
The mark [4] stands for this setting: Table 5, cAMP, CHO cells, read-out: Human β3 agonist functional activity.
Setting [5] is: Table 8, Beta-3 agonist in vitro functional assay, read-out: Human β3 agonist functional activity.
The mark [6] stands for this setting: Table 11, cAMP, CHO cells, read-out: Human β3 agonist functional activity.
[7] abbreviates: Table 4, cAMP, CHO cells, read-out: Human β3 agonist functional activity.

Counter-ions that a name gives are not always drawn. Like-named read-outs stand apart in the source and are kept apart here.

T1 sequence (P13945 whole entry): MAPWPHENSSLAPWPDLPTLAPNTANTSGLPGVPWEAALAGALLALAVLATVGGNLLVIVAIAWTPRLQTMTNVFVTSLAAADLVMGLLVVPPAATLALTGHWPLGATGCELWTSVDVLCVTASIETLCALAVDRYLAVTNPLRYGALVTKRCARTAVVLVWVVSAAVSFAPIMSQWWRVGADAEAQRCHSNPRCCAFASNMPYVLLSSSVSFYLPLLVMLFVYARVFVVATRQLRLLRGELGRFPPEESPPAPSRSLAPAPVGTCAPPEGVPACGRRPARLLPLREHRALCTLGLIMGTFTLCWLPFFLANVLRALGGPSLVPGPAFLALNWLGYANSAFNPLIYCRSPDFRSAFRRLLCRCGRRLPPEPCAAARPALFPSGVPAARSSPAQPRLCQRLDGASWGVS

With `Cc1cccnc1N1CCN(C(=O)c2ccc(C[C@@H]3CC[C@H]([C@H](O)c4ccccc4)N3)cc2)CC1` [Example 364], the EC50 under setting [1] fell in the range of 10 to 99.9 nM. `CC(C(=O)N1CCn2ccnc2C1)N1CCN(C(=O)c2ccc(C[C@@H]3CC[C@H]([C@H](O)c4ccccc4)N3)cc2)CC1` (some centres unmarked) [Example 502]: the EC50 under setting [2] is 10 to 99.9 nM. In the case of `O=C1CC(c2ccccc2)C2(CCN(C(=O)c3ccc(CC4CCC(C(O)c5cccnc5)N4)cc3)CC2)O1` (single isomer, unassigned) [Example 560], under setting [3], the EC50 lay in the range of 1 to 9.9 nM. As for `O=C(c1ccc(C[C@@H]2CC[C@H]([C@H](O)c3ccccc3)N2)cc1)N1CCC(Cc2ccc(F)cc2)CC1` [Example 145], under setting [4], the EC50 lay within 10 to 99.9 nM. Turning to `O=C(c1ccc(CC2CCC(C(O)c3ccccc3)N2)cc1)N1CCN(C2CCc3cccnc32)CC1` (single isomer, unassigned) [Example 597], under setting [3], the EC50 was 1 to 9.9 nM.

As to `CC(C(=O)NCC1CCCO1)N1CCN(C(=O)c2ccc(C[C@@H]3CC[C@H]([C@H](O)c4ccccc4)N3)cc2)CC1` (some centres unmarked) [Example 455], the EC50 under setting [2] lay in the range of 10 to 99.9 nM. On the same count and under the same terms, as for `CC(C(=O)N1C[C@H](F)[C@@H](F)C1)N1CCN(C(=O)c2ccc(C[C@@H]3CC[C@H]([C@H](O)c4ccccc4)N3)cc2)CC1` (some centres unmarked) [Example 476], the figure is 10 to 99.9 nM; as for `COC(=O)C(C)N1CCN(C(=O)c2ccc(C[C@@H]3CC[C@H]([C@H](O)c4ccccc4)N3)cc2)CC1` (some centres unmarked) [Example 434], 1 to 9.9 nM. On to `O=C1CC2(CCN(C(=O)c3ccc(C[C@@H]4CC[C@H]([C@H](O)c5ccccc5)N4)cc3)CC2)Sc2ccccc21` [Example 326], for which the EC50 under setting [5] lay within 1 to 9.9 nM. For the molecule `NC(=O)C1CCN(C(=O)c2ccc(C[C@@H]3CC[C@H]([C@H](O)c4ccccc4)N3)cc2)CC1` [Example 116], the EC50 under setting [4] is 100 to 999 nM. On to `CC(C(=O)N1CCC(F)(F)C1)N1CCN(C(=O)c2ccc(C[C@@H]3CC[C@H]([C@H](O)c4ccccc4)N3)cc2)CC1` (stereo partly drawn) [Example 432, (R)-{(2R,5S)-5-[4-({4-{2-(3,3,-Difluoropyrrolidin-1-yl)-1-methyl-2-oxoethyl]piperazine-1-yl}carbonyl)benzyl}pyrrolidin-2-yl)(phenyl)methanol, TFA salt], for which the EC50 (given as a range, cAMP, CHO cells, read-out: human β3 functional activity) fell in the range of 10 to 99.9 nM. Turning to `O=C(c1ccc(CC2CCC(C(O)c3ccccc3)N2)cc1)N1CCN(C2CCN(c3ccccc3)C2=O)CC1` (single isomer, unassigned) [Example 605], the EC50 under setting [3] fell in the range of 1 to 9.9 nM.

For `O=C(c1ccc(C[C@@H]2CC[C@H]([C@H](O)c3ccccc3)N2)cc1)N1CCC(Cc2ccccc2F)CC1` [Example 144], the EC50 under setting [4] lay in the range of 10 to 99.9 nM. For `O=C1OC2(CCN(C(=O)c3ccc(C[C@@H]4CC[C@H]([C@H](O)c5cccnc5)N4)cc3)CC2)c2ccccc21` [Example 284], the EC50 under setting [5] was 1 to 9.9 nM. For `CC1(C)CC2(CCN(C(=O)c3ccc(C[C@@H]4CC[C@H]([C@H](O)c5cccnc5)N4)cc3)CC2)C(=O)O1` [Example 294], the EC50 under setting [5] was 1 to 9.9 nM.

For `O=C(c1ccc(C[C@@H]2CC[C@H]([C@H](O)c3ccccc3)N2)cc1)N1CCN2C(=O)CCC2C1` (some centres unmarked) [Example 550], the EC50 under setting [6] is 100 to 999 nM. Take `CC1CC2(CCN(C(=O)c3ccc(CC4CCC(C(O)c5ccccc5)N4)cc3)CC2)C(=O)O1` (single isomer, unassigned) [Example 561]: the EC50 under setting [3] lay in the range of 1 to 9.9 nM. Turning to `O=C(c1ccc(C[C@@H]2CC[C@H]([C@H](O)c3ccccc3)N2)cc1)N1CCC(S(=O)(=O)O)CC1` [Example 141], the EC50 under setting [4] was in the range of 10 to 99.9 nM. `CC(C(=O)N1CCC(F)CC1)N1CCN(C(=O)c2ccc(C[C@@H]3CC[C@H]([C@H](O)c4ccccc4)N3)cc2)CC1` (some centres unmarked) [Example 491]: the EC50 under setting [2] lay in the range of 10 to 99.9 nM. In the case of `CC(c1nccs1)N1CCN(C(=O)c2ccc(CC3CCC(C(O)c4ccccc4)N3)cc2)CC1` (single isomer, unassigned) [Example 581], the EC50 under setting [3] lay within 1 to 9.9 nM. Regarding `CCNC(=O)C(C)N1CCN(C(=O)c2ccc(C[C@@H]3CC[C@H]([C@H](O)c4ccccc4)N3)cc2)CC1` (some centres unmarked) [Example 436], under setting [2], the EC50 lay within 100 to 999 nM. Consider `O=C(c1ccc(C[C@@H]2CC[C@H]([C@H](O)c3ccccc3)N2)cc1)N1CCC2(CC1)C(=O)Nc1ccccc12` [Example 299], for which the EC50 under setting [5] was 10 to 99.9 nM. Take `O=C(c1ccc(CC2CCC(C(O)c3ccccc3)N2)cc1)N1CCC2(CC1)C(=O)NCC2c1ccc(F)cc1` (single isomer, unassigned) [Example 558]: the EC50 under setting [3] is less than 1 nM. Take `CCCN(CCC)C(=O)CC1(c2ccccc2)CCN(C(=O)c2ccc(C[C@@H]3CC[C@H]([C@H](O)c4ccccc4)N3)cc2)CC1` [Example 248]: under setting [5], the EC50 was 100 to 999 nM.

As for `Cc1cncnc1OC1CCN(C(=O)c2ccc(C[C@@H]3CC[C@H]([C@H](O)c4ccccc4)N3)cc2)CC1` [Example 153], the EC50 under setting [4] lay in the range of 100 to 999 nM. Turning to `O=C(c1ccc(C[C@@H]2CC[C@H]([C@H](O)c3ccccc3)N2)cc1)N1CCC2(CCCC2n2cccn2)CC1` (some centres unmarked) [Example 282], the EC50 under setting [5] fell in the range of 100 to 999 nM. For the molecule `O=C(c1ccc(C[C@@H]2CC[C@H]([C@H](O)c3ccccc3)N2)cc1)N1CCC(N2C(=O)OCc3ccccc32)CC1` [Example 69], the EC50 under setting [4] is 1 to 9.9 nM. For the molecule `O=C(c1ccc(C[C@@H]2CC[C@H]([C@H](O)c3ccccc3)N2)cc1)N1CCc2oncc2C1` [Example 55], the EC50 under setting [7] was 100 to 999 nM. In the case of `O=C(O)c1cccnc1N1CCN(C(=O)c2ccc(C[C@@H]3CC[C@H]([C@H](O)c4ccccc4)N3)cc2)CC1` [Example 365], the EC50 under setting [1] is 100 to 999 nM.

`O=C(c1ccc(CC2CCC(C(O)c3ccccc3)N2)cc1)N1CCN(C2CCc3cccnc32)CC1` (single isomer, unassigned) [Example 598]: the EC50 under setting [3] was 1 to 9.9 nM. Regarding `O=C(c1ccc(C[C@@H]2CC[C@H]([C@H](O)c3ccccc3)N2)cc1)N1CCC2(CCCN2)CC1` [Example 305], under setting [5], the EC50 was in the range of 100 to 999 nM. Take `O=C(c1ccc(C[C@@H]2CC[C@H]([C@H](O)c3ccccc3)N2)cc1)N1CC2CCC(C1)N2Cc1ccccn1` [Example 535]: under setting [6], the EC50 was 100 to 999 nM.

Regarding `O=C(c1ccc(C[C@@H]2CC[C@H]([C@H](O)c3ccccc3)N2)cc1)N1CCN(Cc2ccccc2F)CC1` [Example 410], the EC50 under setting [1] fell in the range of 10 to 99.9 nM. In the case of `CC(C(=O)N1CCCCC1)N1CCN(C(=O)c2ccc(C[C@@H]3CC[C@H]([C@H](O)c4ccccc4)N3)cc2)CC1` (some centres unmarked) [Example 484], the EC50 under setting [2] fell in the range of 10 to 99.9 nM.

As to `CC(C(=O)N1CCc2cnccc2C1)N1CCN(C(=O)c2ccc(C[C@@H]3CC[C@H]([C@H](O)c4ccccc4)N3)cc2)CC1` (some centres unmarked) [Example 508], the EC50 under setting [2] is 10 to 99.9 nM. For the molecule `CC1CCCN(C(=O)C(C)N2CCN(C(=O)c3ccc(C[C@@H]4CC[C@H]([C@H](O)c5ccccc5)N4)cc3)CC2)C1` (some centres unmarked) [Example 486], under setting [2], the EC50 lay in the range of 10 to 99.9 nM. For `CC(C(=O)NC1CCCC1)N1CCN(C(=O)c2ccc(C[C@@H]3CC[C@H]([C@H](O)c4ccccc4)N3)cc2)CC1` (some centres unmarked) [Example 456], under setting [2], the EC50 was in the range of 10 to 99.9 nM. In the case of `C[C@H]1CN(Cc2ccccn2)CCN1C(=O)c1ccc(C[C@@H]2CC[C@H]([C@H](O)c3ccccc3)N2)cc1` [Example 530], the EC50 under setting [6] is 10 to 99.9 nM. As to `CC(C(=O)O)N1CCN(C(=O)c2ccc(C[C@@H]3CC[C@H]([C@H](O)c4ccccc4)N3)cc2)CC1` (some centres unmarked) [Example 433], the EC50 under setting [2] lay in the range of 1 to 9.9 nM.

As to `O=C(c1ccc(C[C@@H]2CC[C@H]([C@H](O)c3ccccc3)N2)cc1)N1CCC(Oc2cncc(Cl)n2)CC1` [Example 155], the EC50 under setting [4] is 100 to 999 nM. Turning to `COC(=O)c1csc(C2CCN(C(=O)c3ccc(C[C@@H]4CC[C@H]([C@H](O)c5ccccc5)N4)cc3)CC2)n1` [Example 88], the EC50 under setting [4] was in the range of 10 to 99.9 nM. Turning to `CCCCN(C)C(=O)C(C)N1CCN(C(=O)c2ccc(C[C@@H]3CC[C@H]([C@H](O)c4ccccc4)N3)cc2)CC1` (some centres unmarked) [Example 514], under setting [2], the EC50 was in the range of 10 to 99.9 nM. For the molecule `O=C(c1ccc(C[C@@H]2CC[C@H]([C@H](O)c3ccccc3)N2)cc1)N1CCn2cnnc2C1` [Example 548], the EC50 under setting [6] was 100 to 999 nM.

As to `O=C(c1ccc(C[C@@H]2CC[C@H]([C@H](O)c3ccccc3)N2)cc1)N1CCC(n2c(=O)[nH]c3cc(Cl)ccc32)CC1` [Example 75], under setting [4], the EC50 was 100 to 999 nM.

Turning to `O=C(c1ccc(C[C@@H]2CC[C@H]([C@H](O)c3ccccc3)N2)cc1)N1CCC2(CC1)C(=O)NCC2c1ccccc1C(F)(F)F` (some centres unmarked) [Example 265], the EC50 under setting [5] lay in the range of 1 to 9.9 nM.

Take `CC(C(=O)N1CCCC2(CCCO2)C1)N1CCN(C(=O)c2ccc(C[C@@H]3CC[C@H]([C@H](O)c4ccccc4)N3)cc2)CC1` (some centres unmarked) [Example 497]: the EC50 under setting [2] was in the range of 10 to 99.9 nM. On to `O=C(c1ccc(C[C@@H]2CC[C@H]([C@H](O)c3ccccc3)N2)cc1)N1CCc2onc(O)c2C1` [Example 53], for which the EC50 under setting [7] is 999 to 3000 nM. `CCOC(=O)C1CCCCN1C(=O)c1ccc(C[C@@H]2CC[C@H]([C@H](O)c3ccccc3)N2)cc1` (some centres unmarked) [Example 48]: the EC50 under setting [7] was 100 to 999 nM. As for `CCN1CCC2(CCN(C(=O)c3ccc(C[C@@H]4CC[C@H]([C@H](O)c5ccccc5)N4)cc3)CC2)C1=O` [Example 252], the EC50 under setting [5] is 100 to 999 nM.

Consider `CC(C(=O)NCC(=O)N1CCCC1)N1CCN(C(=O)c2ccc(C[C@@H]3CC[C@H]([C@H](O)c4ccccc4)N3)cc2)CC1` (some centres unmarked) [Example 460], for which the EC50 under setting [2] lay within 10 to 99.9 nM. The same measure, in the same setting: as for `CCC(C)(C)NC(=O)C(C)N1CCN(C(=O)c2ccc(C[C@@H]3CC[C@H]([C@H](O)c4ccccc4)N3)cc2)CC1` (some centres unmarked) [Example 439], the figure is 1 to 9.9 nM. Consider `CC(c1ccccn1)N1CC2CCC1CN2C(=O)c1ccc(CC2CCC(C(O)c3ccccc3)N2)cc1` (centres unmarked) [Example 542], for which, under setting [6], the EC50 was in the range of 100 to 999 nM.

Turning to `C[C@@H](c1ccccn1)N1CC2CC1CN2C(=O)c1ccc(C[C@@H]2CC[C@H]([C@H](O)c3ccccc3)N2)cc1` (some centres unmarked) [Example 538], the EC50 under setting [6] lay within 100 to 999 nM.
